This passage reports Ki, inhibition and Ratio Ki results from ChEMBL document CHEMBL4477255, “Charting the chemical space around the (iso)indoline scaffold, a comprehensive approach towards multitarget directed ligands” (Bioorg Med Chem Lett, 2016).

In general, Ki refers to the dissociation constant of the complex between target and ligand, obtained from inhibition or displacement. The term inhibition denotes the drop in the measured response relative to a control, in per cent.

Format in all cases: cell-based
Test [1] addresses T1, D(3) dopamine receptor (Homo sapiens, UniProt P35462). As to the kind of experiment: Displacement of [3H]raclopride from human recombinant dopamine D3 receptor expressed in CHO-K1 cells incubated for 120 mins by liquid scintillation counting analysis. For orientation: Displacement assays read how much labelled ligand stays bound in the presence of the test substance.
Test [2] addresses T2, Histamine H3 receptor (Homo sapiens, UniProt Q9Y5N1). In words: Displacement of N-alpha-[methyl-3H]methylhistamine dihydrochloride from human recombinant histamine H3 receptor expressed in CHO-K1 cells incubated for 30 mins by liquid scintillation counting analysis.
In test [3] the target is T3, 5-hydroxytryptamine receptor 6 (Homo sapiens, UniProt P50406). In words: Displacement of [3H]LSD from human recombinant 5-HT6 receptor expressed in CHO-K1 cells incubated for 3 hrs by scintillation counting analysis.
T3 sequence (P50406 whole entry): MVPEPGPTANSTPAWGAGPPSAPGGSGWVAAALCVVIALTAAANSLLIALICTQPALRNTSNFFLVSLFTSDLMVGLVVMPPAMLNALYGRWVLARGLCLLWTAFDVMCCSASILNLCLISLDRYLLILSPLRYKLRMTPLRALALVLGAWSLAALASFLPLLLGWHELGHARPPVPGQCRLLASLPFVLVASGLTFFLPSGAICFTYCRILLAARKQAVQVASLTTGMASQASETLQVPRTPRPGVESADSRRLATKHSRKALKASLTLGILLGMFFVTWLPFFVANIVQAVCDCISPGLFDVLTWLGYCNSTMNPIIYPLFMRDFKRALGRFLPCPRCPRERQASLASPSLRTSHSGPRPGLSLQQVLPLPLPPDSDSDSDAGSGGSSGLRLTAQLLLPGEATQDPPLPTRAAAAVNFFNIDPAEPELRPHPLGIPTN
Test [4] concerns the target T2, Histamine H3 receptor. As to the kind of experiment: Displacement of N-alpha-[methyl-3H]methylhistamine dihydrochloride from human recombinant histamine H3 receptor expressed in CHO-K1 cells at 1 uM incubated for 30 mins by liquid scintillation counting analysis.
For test [5], the target named is T4, D(2) dopamine receptor (Homo sapiens, UniProt P14416). In words: Displacement of [3H]raclopride from human recombinant dopamine D2 long receptor expressed in CHO-K1 cells at 1 uM incubated for 120 mins by scintillation counting analysis.
T4 sequence (P14416 whole entry): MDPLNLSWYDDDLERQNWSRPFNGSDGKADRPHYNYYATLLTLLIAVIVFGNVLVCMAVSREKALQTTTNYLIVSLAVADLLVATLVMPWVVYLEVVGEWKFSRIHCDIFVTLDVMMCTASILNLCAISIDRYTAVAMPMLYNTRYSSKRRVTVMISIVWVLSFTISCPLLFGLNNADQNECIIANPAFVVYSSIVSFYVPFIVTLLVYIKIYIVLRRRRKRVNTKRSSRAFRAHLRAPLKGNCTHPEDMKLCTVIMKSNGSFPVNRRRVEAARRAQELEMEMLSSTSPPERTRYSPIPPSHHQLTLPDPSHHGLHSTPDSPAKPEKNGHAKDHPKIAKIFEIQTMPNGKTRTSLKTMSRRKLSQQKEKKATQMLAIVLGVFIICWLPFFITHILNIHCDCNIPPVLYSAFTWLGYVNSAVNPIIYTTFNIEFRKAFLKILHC
Test [6] has as its target T3, 5-hydroxytryptamine receptor 6. In words: Displacement of [3H]LSD from human recombinant 5-HT6 receptor expressed in CHO-K1 cells at 1 uM incubated for 3 hrs by scintillation counting analysis.
Test [7] concerns the target T1, D(3) dopamine receptor. In words: Displacement of [3H]raclopride from human recombinant dopamine D3 receptor expressed in CHO-K1 cells at 1 uM incubated for 120 mins by liquid scintillation counting analysis.
The target in test [8] is T4, D(2) dopamine receptor. As to the kind of experiment: Displacement of [3H]raclopride from human recombinant dopamine D2 long receptor expressed in CHO-K1 cells incubated for 120 mins by scintillation counting analysis.
The species entered for test [9] is Homo sapiens. In words: Selectivity index, ratio of Ki for human recombinant dopamine D3 receptor expressed in CHO-K1 cells to Ki for dopamine D2 long receptor expressed in CHO-K1 cells.
The species named for test [10] is Homo sapiens. In words: Selectivity index, ratio of Ki for human recombinant dopamine D3 receptor expressed in CHO-K1 cells to Ki for human recombinant 5-HT6 receptor expressed in CHO-K1 cells.
The species named for test [11] is Homo sapiens. As to the kind of experiment: Selectivity index, ratio of Ki for human recombinant dopamine D2 long receptor expressed in CHO-K1 cells to Ki for human recombinant 5-HT6 receptor expressed in CHO-K1 cells.
The species entered for test [12] is Homo sapiens. As to the kind of experiment: Selectivity index, ratio of Ki for human recombinant histamine H3 receptor expressed in CHO-K1 cells to Ki for human recombinant 5-HT6 receptor expressed in CHO-K1 cells.

T2 sequence (Q9Y5N1 whole entry): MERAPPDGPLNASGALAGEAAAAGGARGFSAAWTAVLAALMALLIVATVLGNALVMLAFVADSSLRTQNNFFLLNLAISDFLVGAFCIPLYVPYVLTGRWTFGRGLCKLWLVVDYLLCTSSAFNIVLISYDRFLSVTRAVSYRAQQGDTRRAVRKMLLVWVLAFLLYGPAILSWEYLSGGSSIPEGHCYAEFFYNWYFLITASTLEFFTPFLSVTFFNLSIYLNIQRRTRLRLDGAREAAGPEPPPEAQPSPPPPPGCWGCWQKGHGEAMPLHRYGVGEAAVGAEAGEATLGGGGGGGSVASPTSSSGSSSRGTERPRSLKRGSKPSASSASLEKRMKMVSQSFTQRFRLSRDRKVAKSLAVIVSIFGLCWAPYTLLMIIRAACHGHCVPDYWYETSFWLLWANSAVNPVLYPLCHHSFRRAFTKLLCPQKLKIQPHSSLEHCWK
T1 sequence (P35462 whole entry): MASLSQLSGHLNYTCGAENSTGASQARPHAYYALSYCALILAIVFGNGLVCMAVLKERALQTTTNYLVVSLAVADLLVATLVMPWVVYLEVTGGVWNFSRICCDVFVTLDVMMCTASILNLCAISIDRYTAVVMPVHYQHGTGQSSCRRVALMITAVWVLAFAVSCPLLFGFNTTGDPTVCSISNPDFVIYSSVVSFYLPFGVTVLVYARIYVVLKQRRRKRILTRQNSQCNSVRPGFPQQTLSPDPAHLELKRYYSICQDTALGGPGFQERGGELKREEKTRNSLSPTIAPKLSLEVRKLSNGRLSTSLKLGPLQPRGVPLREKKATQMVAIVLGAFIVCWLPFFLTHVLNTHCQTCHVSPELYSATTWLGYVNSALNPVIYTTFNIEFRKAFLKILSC

`CN1CCC(c2ccc3c(c2)CCN3S(=O)(=O)c2ccccc2)CC1`: the Ki at D(3) dopamine receptor [1] is 0.401 µM; at Histamine H3 receptor [2] it was 0.299 µM; in [3] it was 0.128 µM. The inhibition on Histamine H3 receptor [4] is 59%; at D(2) dopamine receptor [5], 14%; in [6], 86%; at D(3) dopamine receptor [7], 48%.
Consider `CCN1CCN(c2cccc3c2CCN3S(=O)(=O)c2ccccc2)CC1`, for which the Ki at D(3) dopamine receptor [1] was found to be 0.072 µM; at Histamine H3 receptor [2], 0.344 µM; on D(2) dopamine receptor [8], 0.084 µM; in test [3] it was 0.031 µM. In addition, the inhibition came out at 50% on Histamine H3 receptor [4], 80% at D(2) dopamine receptor [5], 89% in test [6] and 91% at D(3) dopamine receptor [7]. In the test listed under Homo sapiens [9], the Ratio Ki came to 1.5.
On to `CCN1CCC(c2ccc3c(c2)CN(S(=O)(=O)c2ccccc2)C3)CC1`, for which the Ki at Histamine H3 receptor [2] turned out to be 0.302 µM. Further, the inhibition at Histamine H3 receptor [4] amounted to 48%; on D(2) dopamine receptor [5], 18%; in [6] it was 4%; at D(3) dopamine receptor [7], 32%.
Turning to `O=S(=O)(c1ccccc1)N1CCc2c(C3CCN(C4CCC4)CC3)cccc21`, the inhibitory constant (Ki) turned out to be 0.214 µM on Histamine H3 receptor [2] and 1.04 µM on D(2) dopamine receptor [8]. In addition, the inhibition was found to be 82% at Histamine H3 receptor [4], 48% at D(2) dopamine receptor [5], 1% in test [6] and 9% at D(3) dopamine receptor [7].
As to `O=S(=O)(c1ccccc1)N1CCc2c(N3CCN(C4CCC4)CC3)cccc21`, the Ki at D(3) dopamine receptor [1] was 0.449 µM; on Histamine H3 receptor [2] it was 0.58 µM; on D(2) dopamine receptor [8] it was 0.355 µM; in test [3], 0.266 µM. Besides, the inhibition was found to be 59% at Histamine H3 receptor [4], 60% on D(2) dopamine receptor [5], 51% in test [6] and 60% at D(3) dopamine receptor [7].
As for `CCCN1CCN(c2ccc3c(c2)N(S(=O)(=O)c2ccccc2)CC3)CC1`, the Ki at D(3) dopamine receptor [1] was found to be 0.0057 µM; on D(2) dopamine receptor [8] it was 0.095 µM; in test [3], 0.125 µM. Moreover, the inhibition on Histamine H3 receptor [4] amounted to 16%; at D(2) dopamine receptor [5], 80%; in [6], 82%; at D(3) dopamine receptor [7] it was 99%. The Ratio Ki in the test filed under Homo sapiens [9] was below 10.
In the case of `CCN1CCN(c2ccc3c(c2)CN(S(=O)(=O)c2ccccc2)C3)CC1`, the results for the Ki at D(3) dopamine receptor [1] and on Histamine H3 receptor [2] were 0.688 µM and 0.294 µM, respectively. The inhibition is 60% on Histamine H3 receptor [4], 22% on D(2) dopamine receptor [5], -7% in [6] and 61% at D(3) dopamine receptor [7].
As to `O=S(=O)(c1ccccc1)N1Cc2cccc(C3CCNCC3)c2C1`, the Ki in [3] was found to be 0.00043 µM. Moreover, the inhibition on Histamine H3 receptor [4] was 4%; at D(2) dopamine receptor [5] it was 17%; in test [6], 101%; on D(3) dopamine receptor [7], 16%. Further, the Ratio Ki in the test listed under Homo sapiens [10], in the test filed under Homo sapiens [11] and in the test filed under Homo sapiens [12] was above 100 each time.
With `O=S(=O)(c1ccccc1)N1Cc2ccc(N3CCN(C4CCC4)CC3)cc2C1`, the inhibition constant Ki at Histamine H3 receptor [2] amounted to 0.395 µM. Further, the inhibition turned out to be 74% on Histamine H3 receptor [4], 1% at D(2) dopamine receptor [5], 1% in test [6] and 34% at D(3) dopamine receptor [7].
Take `CCN1CCN(c2ccc3c(c2)N(S(=O)(=O)c2ccccc2)CC3)CC1`: the inhibitory constant (Ki) on D(3) dopamine receptor [1] is 0.016 µM; on D(2) dopamine receptor [8], 0.136 µM; in test [3], 0.06 µM. Moreover, the inhibition is 20% on Histamine H3 receptor [4], 77% at D(2) dopamine receptor [5], 86% in test [6] and 95% on D(3) dopamine receptor [7]. Besides, the Ratio Ki in the test filed under Homo sapiens [9] is below 10.
Regarding `CCN1CCC(c2ccc3c(c2)CCN3S(=O)(=O)c2ccccc2)CC1`, the Ki at D(3) dopamine receptor [1] was 0.321 µM; on Histamine H3 receptor [2] it was 0.448 µM. For the same molecule, the inhibition at Histamine H3 receptor [4] is 54%; at D(2) dopamine receptor [5], 17%; in [6], 40%; on D(3) dopamine receptor [7], 72%.
For `CCCN1CCC(c2ccc3c(c2)N(S(=O)(=O)c2ccccc2)CC3)CC1`, the Ki was found to be 0.026 µM at D(3) dopamine receptor [1], 0.324 µM on D(2) dopamine receptor [8] and 0.071 µM in [3]. For the same molecule, the inhibition on Histamine H3 receptor [4] was found to be 14%; at D(2) dopamine receptor [5] it was 59%; in test [6], 81%; at D(3) dopamine receptor [7] it was 98%. Moreover, in the test listed under Homo sapiens [9], the Ratio Ki is below 10.
With `CCN1CCC(c2cccc3c2CCN3S(=O)(=O)c2ccccc2)CC1`, the results for the inhibition constant (Ki) (at D(3) dopamine receptor [1]; on Histamine H3 receptor [2]; in test [3]) were 0.591 µM, 0.317 µM and 0.17 µM, respectively. For the same molecule, the inhibition at Histamine H3 receptor [4] amounted to 50%; on D(2) dopamine receptor [5], 25%; in [6] it was 59%; on D(3) dopamine receptor [7], 58%.
Consider `CN1CCN(c2ccc3c(c2)N(S(=O)(=O)c2ccccc2)CC3)CC1`, for which the Ki at D(3) dopamine receptor [1] was determined as 0.068 µM; on D(2) dopamine receptor [8], 0.458 µM; in test [3] it was 0.025 µM. For the same molecule, the inhibition at Histamine H3 receptor [4] was -7%; on D(2) dopamine receptor [5], 52%; in test [6] it was 92%; on D(3) dopamine receptor [7], 72%. In addition, in the test listed under Homo sapiens [9], the Ratio Ki was below 10.
On to `O=S(=O)(c1ccccc1)N1CCc2ccc(N3CCN(C4CCC4)CC3)cc21`, for which the inhibitory constant (Ki) on D(3) dopamine receptor [1] is 0.173 µM; at D(2) dopamine receptor [8], 0.411 µM; in test [3], 0.186 µM. Besides, the inhibition at Histamine H3 receptor [4] was found to be 36%; at D(2) dopamine receptor [5] it was 50%; in [6], 60%; on D(3) dopamine receptor [7], 78%. Further, the Ratio Ki in the test listed under Homo sapiens [9] was below 10.
Consider `CN1CCC(c2cccc3c2CN(S(=O)(=O)c2ccccc2)C3)CC1`, for which the inhibition constant Ki in test [3] came to 0.009 µM. The inhibition on Histamine H3 receptor [4] turned out to be 14%; at D(2) dopamine receptor [5], 14%; in test [6] it was 94%; on D(3) dopamine receptor [7], 14%. In addition, the Ratio Ki in the test filed under Homo sapiens [10], in the test filed under Homo sapiens [11] and in the test filed under Homo sapiens [12] was above 100 throughout.
On to `CCN1CCN(c2ccc3c(c2)CCN3S(=O)(=O)c2ccccc2)CC1`, for which the inhibition constant (Ki) stood at 0.048 µM at D(3) dopamine receptor [1], 0.28 µM at Histamine H3 receptor [2], 0.438 µM at D(2) dopamine receptor [8] and 0.129 µM in test [3]. Besides, the inhibition at Histamine H3 receptor [4] came to 65%; at D(2) dopamine receptor [5], 50%; in test [6], 53%; on D(3) dopamine receptor [7], 94%.
For the molecule `CN1CCN(c2cccc3c2CCN3S(=O)(=O)c2ccccc2)CC1`, the Ki on D(3) dopamine receptor [1] was 0.173 µM; at D(2) dopamine receptor [8] it was 0.211 µM; in test [3] it was 0.0082 µM. Further, the inhibition on Histamine H3 receptor [4] is 17%; on D(2) dopamine receptor [5], 67%; in test [6], 96%; on D(3) dopamine receptor [7], 77%. The Ratio Ki in the test listed under Homo sapiens [9] was found to be 1.5.
